Assays:
Type in all cases: in vivo
[1] = tested on: Agrostis tenuis; assay: Herbicidal early post-emergence action (96-well microtiter plates), AGSTE; conditions: 1900 g/ha, scored 9 to 12 days after treatment, 100% = plants have died, 0% = like untreated control plants
Summary of the method: (§1)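 Weed seeds grown in quartz sand in 96-well microtiter plates in a climate chamber and treated at the cotyledon stage, 5 to 7 days after sowing, with EC formulations at 2200 L/ha water and a rate equivalent to 1900 g/ha. Visual scoring after 9 to 12 days against untreated controls (0% = control, 100% = dead).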

[2] = tested on: Matricaria inodora; assay: Herbicidal post-emergence action (greenhouse pots), MATIN; conditions: 1280 g/ha, visual rating about 3 weeks after treatment vs untreated controls
Description: (§2) In the examples and tables below, the following abbreviations are used: • Undesired Plants/Weeds: • ABUTH: Abutilon theophrasti • AGSTE: Agrostis tenuis • AMARE Amaranthus retroflexus • ECHCG: Echinochloa crus-galli • LOLRI: Lolium rigidum • MATIN: Matricaria inodora • POAAN: Poa annua • SETVI: Setaria viridis • STEME: Stellaria media A. Herbicidal Early Post-Emergence Action Seeds of mono- and dicotyledonous weed plants were placed in plastic pots in sandy loam soil (doubly sown with in each case one species of mono- or dicotyledonous weed plants per pot), covered with soil and cultivated in a greenhouse under controlled growth conditions. 2 to 3 weeks after sowing, the test plants were treated at the one-leaf stage. The compounds of the invention, formulated in the form of wettable powders (WP) or as emulsion concentrates (EC), were applied onto the green parts of the plants as aqueous suspension or emulsion with addition of 0.5% additive at a water application rate of 600 liters per hectare (converted). After the test plants had been kept in the greenhouse under optimum growth conditions for about 3 weeks, the activity of the preparations was rated visually in comparison to untreated controls. For example, 100% activity=the plants have died, 0% activity=like untreated control plants. Tables B1-B8 below show the effects of selected compounds of the general formula (I) according to Table 1 above on various harmful plants and an application rate corresponding to 1280 g/ha, which were obtained by the experimental procedure mentioned above.

[3] = tested on: Stellaria media; assay: Herbicidal post-emergence action (greenhouse pots), STEME; conditions: 1280 g/ha, visual rating about 3 weeks after treatment vs untreated controls
Summary of the method: (§3)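 Activity is a visual percentage score (0% = like untreated controls, 100% = plants died) taken about 3 weeks after treatment. Plants grown in sandy loam under greenhouse conditions received 1280 g/ha onto green parts at the one-leaf stage, formulated as WP or EC with 0.5% additive.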

[4] = tested on: Poa annua; assay: Herbicidal early post-emergence action (96-well microtiter plates), POAAN; conditions: 1900 g/ha, scored 9 to 12 days after treatment, 100% = plants have died, 0% = like untreated control plants
Summary of the method: as §1

[5] = tested on: Setaria viridis; assay: Herbicidal pre-emergence action (greenhouse pots), SETVI; conditions: 1280 g/ha, visual scoring after about 3 weeks vs untreated controls
Summary of the method: (§4)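 Weed seeds were sown in sandy loam and covered with soil. Compounds formulated as WP or EC were applied to the covering soil surface as aqueous suspension or emulsion with 0.5% additive at 600 L/ha water, 1280 g/ha. After about 3 weeks in the greenhouse, damage was scored visually as % versus untreated controls.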

[6] = tested on: Amaranthus retroflexus; assay: Herbicidal pre-emergence action (greenhouse pots), AMARE; conditions: 1280 g/ha, visual scoring after about 3 weeks vs untreated controls
Summary of the method: as §4

[7] = tested on: Matricaria inodora; assay: Herbicidal pre-emergence action (greenhouse pots), MATIN; conditions: 1280 g/ha, visual scoring after about 3 weeks vs untreated controls
Summary of the method: as §4

[8] = tested on: Stellaria media; assay: Herbicidal pre-emergence action (greenhouse pots), STEME; conditions: 1280 g/ha, visual scoring after about 3 weeks vs untreated controls
Summary of the method: as §4

[9] = tested on: Echinochloa crus-galli; assay: Herbicidal post-emergence action (greenhouse pots), ECHCG; conditions: 1280 g/ha, rated after about 3 weeks, 100% = plants have died, 0% = like untreated control plants
Summary of the method: as §3

[10] = tested on: Poa annua; assay: Herbicidal post-emergence action (greenhouse pots), POAAN; conditions: 1280 g/ha, visual rating about 3 weeks after treatment vs untreated controls
Summary of the method: as §3

[11] = tested on: Abutilon theophrasti; assay: Herbicidal post-emergence action (greenhouse pots), ABUTH; conditions: 1280 g/ha, visual rating about 3 weeks after treatment vs untreated controls
Summary of the method: as §3

[12] = tested on: Amaranthus retroflexus; assay: Herbicidal post-emergence action (greenhouse pots), AMARE; conditions: 1280 g/ha, visual rating about 3 weeks after treatment vs untreated controls
Summary of the method: as §3

[13] = tested on: Echinochloa crus-galli; assay: Herbicidal pre-emergence action (greenhouse pots), ECHCG; conditions: 1280 g/ha, visual scoring after about 3 weeks vs untreated controls
Summary of the method: as §4

[14] = tested on: Poa annua; assay: Herbicidal pre-emergence action (greenhouse pots), POAAN; conditions: 1280 g/ha, visual scoring after about 3 weeks vs untreated controls
Summary of the method: as §4

[15] = tested on: Setaria viridis; assay: Herbicidal post-emergence action (greenhouse pots), SETVI; conditions: 1280 g/ha, rated after about 3 weeks, 100% = plants have died, 0% = like untreated control plants
Description: as §2

[16] = tested on: Lolium rigidum; assay: Herbicidal pre-emergence action (greenhouse pots), LOLRI; conditions: 1280 g/ha, visual scoring after about 3 weeks vs untreated controls
Description: (§5) In the examples and tables below, the following abbreviations are used: • Undesired Plants/Weeds: • ABUTH: Abutilon theophrasti • AGSTE: Agrostis tenuis • AMARE Amaranthus retroflexus • ECHCG: Echinochloa crus-galli • LOLRI: Lolium rigidum • MATIN: Matricaria inodora • POAAN: Poa annua • SETVI: Setaria viridis • STEME: Stellaria media A. Herbicidal Early Post-Emergence Action Seeds of mono- and dicotyledonous weed plants were placed in plastic pots in sandy loam soil (doubly sown with one species each of mono- or dicotyledonous weed plants per pot) and covered with soil. The compounds of the invention, formulated in the form of wettable powders (WP) or as emulsion concentrates (EC), were then applied onto the surface of the covering soil as aqueous suspension or emulsion with addition of 0.5% additive at a water application rate of 600 liters per hectare (converted). After the treatment, the pots were placed in a greenhouse and kept under good growth conditions for the test plants. After about 3 weeks, the effect of the preparations was scored visually in comparison with untreated controls as percentages. For example, 100% activity=the plants have died, 0% activity=like untreated control plants. Tables C1-C8 below show the effects of selected compounds of the general formula (I) according to Table 1 above on various harmful plants and an application rate corresponding to 1280 g/ha, which were obtained by the experimental procedure mentioned above.

[17] = tested on: Abutilon theophrasti; assay: Herbicidal pre-emergence action (greenhouse pots), ABUTH; conditions: 1280 g/ha, visual scoring after about 3 weeks vs untreated controls
Description: as §5

CCc1cnc(Nc2cccc(C#N)c2Oc2ccc(F)cc2)nc1 [Example 1-310]
AGSTE (herbicidal activity, scored visually in comparison to untreated controls) [1]: 80% | herbicidal activity MATIN [2]: 100% | herbicidal activity STEME [3]: 90%

N#Cc1cccc(Nc2ncc([N+](=O)[O-])cn2)c1Oc1ccc(F)cc1 [Example 1-306]
AGSTE (herbicidal activity, scored visually in comparison to untreated controls) [1]: 100% | POAAN (herbicidal activity, scored visually in comparison to untreated controls) [4]: 80% | herbicidal activity MATIN [2]: 100% | herbicidal activity STEME [3]: 100% | herbicidal activity SETVI [5]: 100% | herbicidal activity AMARE [6]: 100% | herbicidal activity MATIN [7]: 90% | herbicidal activity STEME [8]: 100%

N#Cc1cccc(Nc2ncc(F)cn2)c1Oc1ccc(F)c(F)c1F [Example 1-374]
AGSTE (herbicidal activity, scored visually in comparison to untreated controls) [1]: 100% | POAAN (herbicidal activity, scored visually in comparison to untreated controls) [4]: 100% | ECHCG (herbicidal activity, rated visually in comparison to untreated controls) [9]: 100% | herbicidal activity POAAN [10]: 100% | herbicidal activity ABUTH [11]: 100% | herbicidal activity AMARE [12]: 100% | herbicidal activity MATIN [2]: 100% | herbicidal activity STEME [3]: 100% | herbicidal activity ECHCG [13]: 100% | herbicidal activity POAAN [14]: 100% | herbicidal activity SETVI [5]: 100% | herbicidal activity AMARE [6]: 100% | herbicidal activity MATIN [7]: 100% | herbicidal activity STEME [8]: 100%

N#Cc1cccc(Nc2ncc(F)cn2)c1Oc1ccc(Cl)nc1 [Example 3-54]
AGSTE (herbicidal activity, scored visually in comparison to untreated controls) [1]: 100% | POAAN (herbicidal activity, scored visually in comparison to untreated controls) [4]: 100% | herbicidal activity POAAN [10]: 100% | SETVI (herbicidal activity, rated visually in comparison to untreated controls) [15]: 90% | herbicidal activity ABUTH [11]: 100% | herbicidal activity AMARE [12]: 100% | herbicidal activity STEME [3]: 90% | herbicidal activity ECHCG [13]: 100% | herbicidal activity LOLRI [16]: 100% | herbicidal activity POAAN [14]: 100% | herbicidal activity SETVI [5]: 100% | herbicidal activity ABUTH [17]: 100% | herbicidal activity AMARE [6]: 100% | herbicidal activity MATIN [7]: 100% | herbicidal activity STEME [8]: 100%

Clc1cnc(Nc2ccccc2Oc2ccccc2)nc1 [Example 1-336]
AGSTE (herbicidal activity, scored visually in comparison to untreated controls) [1]: 100% | POAAN (herbicidal activity, scored visually in comparison to untreated controls) [4]: 100% | herbicidal activity MATIN [2]: 100% | herbicidal activity STEME [3]: 100% | herbicidal activity STEME [8]: 100%

N#Cc1cccc(Nc2ncc(F)cn2)c1Oc1ccc(Cl)cc1 [Example 1-269]
AGSTE (herbicidal activity, scored visually in comparison to untreated controls) [1]: 80% | POAAN (herbicidal activity, scored visually in comparison to untreated controls) [4]: 100% | ECHCG (herbicidal activity, rated visually in comparison to untreated controls) [9]: 90% | herbicidal activity POAAN [10]: 90% | SETVI (herbicidal activity, rated visually in comparison to untreated controls) [15]: 90% | herbicidal activity ABUTH [11]: 90% | herbicidal activity AMARE [12]: 100% | herbicidal activity STEME [3]: 100% | herbicidal activity ECHCG [13]: 90% | herbicidal activity LOLRI [16]: 90% | herbicidal activity POAAN [14]: 100% | herbicidal activity SETVI [5]: 100% | herbicidal activity ABUTH [17]: 90% | herbicidal activity AMARE [6]: 100% | herbicidal activity MATIN [7]: 100% | herbicidal activity STEME [8]: 100%

N#Cc1cccc(Nc2ncc(Cl)cc2F)c1Oc1ccc(F)cc1 [Example 1-139]
AGSTE (herbicidal activity, scored visually in comparison to untreated controls) [1]: 100% | POAAN (herbicidal activity, scored visually in comparison to untreated controls) [4]: 80% | herbicidal activity POAAN [10]: 100% | herbicidal activity MATIN [2]: 100%

N#Cc1cccc(Nc2ncc(F)cn2)c1Oc1cc(F)c(F)cc1F [Example 1-375]
AGSTE (herbicidal activity, scored visually in comparison to untreated controls) [1]: 100% | POAAN (herbicidal activity, scored visually in comparison to untreated controls) [4]: 100% | herbicidal activity POAAN [10]: 100% | herbicidal activity ABUTH [11]: 90% | herbicidal activity AMARE [12]: 100% | herbicidal activity STEME [3]: 100% | herbicidal activity ECHCG [13]: 100% | herbicidal activity LOLRI [16]: 90% | herbicidal activity POAAN [14]: 100% | herbicidal activity SETVI [5]: 100% | herbicidal activity ABUTH [17]: 100% | herbicidal activity AMARE [6]: 100% | herbicidal activity MATIN [7]: 100% | herbicidal activity STEME [8]: 100%

N#Cc1cccc(Nc2ncccn2)c1Oc1ccc(F)cc1 [Example 1-248]
AGSTE (herbicidal activity, scored visually in comparison to untreated controls) [1]: 100% | POAAN (herbicidal activity, scored visually in comparison to untreated controls) [4]: 100% | ECHCG (herbicidal activity, rated visually in comparison to untreated controls) [9]: 100% | herbicidal activity POAAN [10]: 100% | herbicidal activity ABUTH [11]: 100% | herbicidal activity AMARE [12]: 100% | herbicidal activity STEME [3]: 100% | herbicidal activity ECHCG [13]: 100% | herbicidal activity LOLRI [16]: 100% | herbicidal activity POAAN [14]: 100% | herbicidal activity SETVI [5]: 100% | herbicidal activity ABUTH [17]: 100% | herbicidal activity AMARE [6]: 100% | herbicidal activity MATIN [7]: 100% | herbicidal activity STEME [8]: 100%
